Test results taken from the supplement of paper PMC4862054.

Key:
[1] = system: DU-4475; experiment: normalised viability (% of control), CellTiter-Blue; higher = more viable cells (about 100 = DMSO control); conditions: incubation time: 72 h
Method in brief: (§1)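 Plates were quality-checked by Z'-factor and normalised to vehicle (100) and a positive kill control (0). The underlying assay incubated breast cancer cell lines for 72 h on 384-well plates with compound, then added 2.5 µl CellTiter-Blue for 2 h at 37 °C and read at 560/590 nm. The value is normalised viability at a single listed concentration of the series.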

[2] = system: HCC1599; experiment: as above; conditions: incubation time: 72 h
Method in brief: as §1

[3] = system: CAL-148; experiment: as above; conditions: incubation time: 72 h
Method in brief: as §1

[4] = system: BT-474; experiment: as above; conditions: incubation time: 72 h
Method in brief: as §1

[5] = system: HCC1937; experiment: as above; conditions: incubation time: 72 h
Method in brief: as §1

[6] = system: MDA-MB-468; experiment: as above; conditions: incubation time: 72 h
Method in brief: as §1

[7] = system: MDA-MB-453; experiment: as above; conditions: incubation time: 72 h
Method in brief: as §1

[8] = system: BT-549; experiment: as above; conditions: incubation time: 72 h
Method in brief: as §1

[9] = system: Hs578T; experiment: as above; conditions: incubation time: 72 h
Method in brief: as §1

[10] = system: HDQ-P1; experiment: as above; conditions: incubation time: 72 h
Method in brief: as §1

[11] = system: MDA-MB-231; experiment: as above; conditions: incubation time: 72 h
Method in brief: as §1

[12] = system: MFM-223; experiment: as above; conditions: incubation time: 72 h
Method in brief: as §1

[13] = system: SK-BR-3; experiment: as above; conditions: incubation time: 72 h
Method in brief: as §1

[14] = system: CAL-85-1; experiment: as above; conditions: incubation time: 72 h
Method in brief: as §1

[15] = system: CAL-148; conditions: 72 h
Method in brief: (§2)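 Each 384-well plate was pre-loaded with compound dissolved in 5 µl medium, received breast cancer cells in 20 µl suspension, and was incubated 72 h. A 2.5 µl addition of CellTiter-Blue for 2 h at 37 °C was followed by a fluorescence read at 560/590 nm. Data were normalised per plate to vehicle and a positive kill control and checked by Z'-factor. EC50 was fitted from the percent-inhibition dose-response curve, censored at the highest concentration, excluding rows with a drug sensitivity score of zero.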

[16] = system: CAL-51; conditions: 72 h
Method in brief: as §2

[17] = system: CAL-148; experiment: drug sensitivity score (DSS), CellTiter-Blue viability (DSS (AUC-based score)); higher = stronger viability inhibition; extreme values may be limits of the assay; conditions: incubation time: 72 h
Method: (§3)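 DSRT with the CellTiter-Blue (resazurin reduction) viability readout, fluorescence 560/590 nm, 72 h incubation. Plates were normalised to DMSO and benzethonium chloride controls. DSS is computed from the area under the fitted dose-response curve (5 or 9 concentrations).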

[18] = system: MDA-MB-468; experiment: as above; conditions: incubation time: 72 h
Method: as §3

[19] = system: CAL-51; experiment: as above; conditions: incubation time: 72 h
Method: as §3

[20] = system: CAL-120; experiment: as above; conditions: incubation time: 72 h
Method: as §3

[21] = system: HCC1143; experiment: as above; conditions: incubation time: 72 h
Method: as §3

[22] = system: HDQ-P1; experiment: as above; conditions: incubation time: 72 h
Method: as §3

[23] = system: SK-BR-3; experiment: as above; conditions: incubation time: 72 h
Method: as §3

[24] = system: CAL-85-1; experiment: as above; conditions: incubation time: 72 h
Method: as §3

C=CCNC1=C2C[C@@H](C)C[C@H](OC)[C@H](O)[C@@H](C)/C=C(\C)[C@H](OC(N)=O)[C@@H](OC)/C=C\C=C(/C)C(=O)NC(=CC1=O)C2=O [Tanespimycin]
normalised viability [%]
Conditions	3 nM	10 nM	30 nM	100 nM	1000 nM	10000 nM
[1]	104	–	83.3	2.97	–	–
[2]	–	123	–	–	42.7	31.3
[3]	97.8	–	89.7	38.5	–	–
[4]	–	104	–	–	28.4	23.9
[5]	–	140	–	–	25.8	27.1
[6]	–	113	–	–	65.5	81.3
[7]	121	–	11.4	7.8	–	–
[8]	–	81.5	–	–	31	20.4
[9]	–	77.1	–	–	35.8	24.9
[10]	92.6	–	85.9	58.6	–	–
[11]	–	92.5	–	–	49.4	28.1
[12]	–	73.6	–	–	23.9	17.6
[13]	–	73.6	–	–	17.4	13
[14]	91.5	–	86.5	82.4	–	–

Conditions	EC50, CellTiter-Blue viability [nM]	drug sensitivity score
[15]	65.9	–
[16]	269	–
[17]	–	22.4
[18]	–	0
[19]	–	16.9
[20]	–	14.8
[21]	–	24.8
[22]	–	19.3
[23]	–	29.2
[24]	–	15.7

CO[C@H]1C[C@@H]2CC[C@@H](C)[C@@](O)(O2)C(=O)C(=O)N2CCCC[C@H]2C(=O)O[C@H]([C@H](C)C[C@@H]2CC[C@@H](OC(=O)C(C)(CO)CO)[C@H](OC)C2)CC(=O)[C@H](C)/C=C(\C)[C@@H](O)[C@@H](OC)C(=O)[C@H](C)C[C@H](C)/C=C/C=C/C=C/1C [Temsirolimus]
normalised viability [%]
Conditions	0.3 nM	1 nM	3 nM	10 nM	100 nM	1000 nM
[1]	95.3	–	66.6	60.2	–	–
[2]	–	103	–	–	78.7	86.8
[3]	74.3	–	45.9	39.4	–	–
[4]	–	80	–	–	58.6	66.2
[5]	–	59.5	–	–	68.7	54.7
[6]	–	74.6	–	–	68.5	62.4
[7]	73.5	–	26.1	27.1	–	–
[8]	–	56.8	–	–	62.9	53.4
[9]	–	70.4	–	–	55.1	57.6
[10]	106	–	78.4	82.5	–	–
[11]	–	73.4	–	–	75.1	78.4
[12]	–	58.1	–	–	50.5	41
[13]	–	76.1	–	–	54	49.7
[14]	69.3	–	58.9	60.7	–	–

Conditions	EC50, CellTiter-Blue viability [nM]	drug sensitivity score
[15]	0.47	–
[16]	1.36	–
[17]	–	25.6
[18]	–	13.1
[19]	–	22.2
[20]	–	16.4
[21]	–	11.1
[22]	–	7.62
[23]	–	17.9
[24]	–	14.7

CC[C@]1(O)C[C@@H]2CN(CCc3c([nH]c4ccccc34)[C@@](C(=O)OC)(c3cc4c(cc3OC)N(C)[C@H]3[C@@](O)(C(=O)OC)[C@H](OC(C)=O)[C@]5(CC)C=CCN6CC[C@]43[C@@H]65)C2)C1 [Vinblastine]
normalised viability [%]
Conditions	0.3 nM	1 nM	3 nM	10 nM	100 nM	1000 nM
[1]	105	–	96.5	82.9	–	–
[2]	–	106	–	–	56.9	45.5
[3]	76.8	–	78.8	79	–	–
[4]	–	51.8	–	–	54.2	52.7
[5]	–	46	–	–	18.7	15.6
[6]	–	83.8	–	–	36.6	41.8
[7]	115	–	99.8	36.8	–	–
[8]	–	90.7	–	–	19.4	17
[9]	–	70.4	–	–	14.8	13.2
[10]	92.6	–	87.3	47.5	–	–
[11]	–	70	–	–	13.4	12
[12]	–	96.7	–	–	43.9	24.9
[13]	–	27.6	–	–	16.5	16.4
[14]	89.9	–	94.9	48.3	–	–

Conditions	EC50, CellTiter-Blue viability [nM]	drug sensitivity score
[15]	13.2	–
[16]	26.5	–
[17]	–	18.7
[18]	–	21.6
[19]	–	16.1
[20]	–	32
[21]	–	19.4
[22]	–	18.2
[23]	–	35.2
[24]	–	17.8
